Data set [1] addresses T1, recombinant full-length human kinase MNK1 (Homo sapiens, UniProt Q9BUB5).
T1 construct: the recombinant full-length human kinase MNK1; made in house; host or cells: insect cells
The experiment in a line: MNK1 radiometric kinase activity assay. The format is biochemical.

In data set [2] the target is T2, recombinant full length human kinase MNK2 (Homo sapiens, UniProt Q9HBH9).
T2 construct: the recombinant full length human kinase MNK2; made in house; host or cells: insect cells
The experiment in a line: MNK2 radiometric kinase activity assay. It counts as biochemical.

In data set [3] the test system is eIF4E phosphorylation at Serine 209 in HEK 293 cells. The data set is described as follows: eIF4E phosphorylation in HEK 293 cells (phospho-specific antibody, fluorescent plate reader).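 Note: Well-level p-eIF4E immunofluorescence normalized to DAPI signal, expressed as percent eIF4E phosphorylation, with IC50 derived from concentration-response curves.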 The format is cell-based. As to conditions: Homo sapiens, HEK293; eIF4E phosphorylation at Serine 209, 2 hours exposure; read-out: HEK 293 cell.
A short description of data set [4]: Liver microsome stability. As to conditions: mouse, liver microsomes. In general terms: Liver microsomes are a subcellular fraction often used to study metabolism.
The subject of a further data set is P-gp (human MDR1, ABCB1). The data set is described as follows: MDCK-MDR1 permeability (blood-brain barrier permeability). As to conditions: dog.
[5] abbreviates: radiometric activity assay, read-out: MNK1.
Where [6] appears, read: radiometric activity assay, read-out: MNK2.

Like-named read-outs stand apart in the source and are kept apart here.

T1 sequence (Q9BUB5 whole entry): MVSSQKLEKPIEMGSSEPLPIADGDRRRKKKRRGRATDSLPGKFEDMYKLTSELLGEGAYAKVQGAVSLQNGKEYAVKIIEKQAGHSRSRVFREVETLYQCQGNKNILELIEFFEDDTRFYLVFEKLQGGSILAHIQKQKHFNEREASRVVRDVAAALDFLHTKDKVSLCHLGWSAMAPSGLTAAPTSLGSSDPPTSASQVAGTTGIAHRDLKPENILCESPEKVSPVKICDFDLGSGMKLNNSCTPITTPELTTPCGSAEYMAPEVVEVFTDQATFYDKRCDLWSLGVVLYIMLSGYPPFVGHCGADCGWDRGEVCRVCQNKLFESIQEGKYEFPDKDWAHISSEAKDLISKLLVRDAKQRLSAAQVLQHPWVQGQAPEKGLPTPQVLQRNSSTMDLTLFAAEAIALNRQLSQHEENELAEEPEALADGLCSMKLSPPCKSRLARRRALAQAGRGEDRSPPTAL
T2 sequence (Q9HBH9 whole entry): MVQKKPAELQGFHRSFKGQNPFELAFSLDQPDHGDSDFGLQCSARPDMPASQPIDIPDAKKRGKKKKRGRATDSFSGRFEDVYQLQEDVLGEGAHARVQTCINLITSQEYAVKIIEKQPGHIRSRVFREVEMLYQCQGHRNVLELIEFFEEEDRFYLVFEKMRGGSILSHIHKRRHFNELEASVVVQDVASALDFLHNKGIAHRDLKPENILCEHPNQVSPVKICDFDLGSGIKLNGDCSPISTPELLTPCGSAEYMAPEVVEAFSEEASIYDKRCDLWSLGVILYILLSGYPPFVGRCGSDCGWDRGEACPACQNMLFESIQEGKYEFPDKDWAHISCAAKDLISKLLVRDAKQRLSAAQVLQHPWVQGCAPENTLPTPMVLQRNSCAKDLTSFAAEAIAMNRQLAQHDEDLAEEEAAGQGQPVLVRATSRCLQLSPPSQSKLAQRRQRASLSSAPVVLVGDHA

By half-life is commonly meant the time in which the quantity being followed falls by half. A lower half-life goes with rapid decline. What is called Papp A→B is how fast a substance crosses the layer from the apical side. Lower therefore signals slow passage. What is called Papp B→A is how fast a substance crosses the layer from the basolateral side. As a reminder, the efflux ratio is a quotient of directional permeabilities that is used to spot active efflux. Turning to `Cc1cc(Nc2cc(NC(=O)C3CC3)ncn2)c(=O)n2c1C(=O)NC21CC2(CCC2)C1` [4ET-03-043, N-(6-((8″-methyl-1″,5″-dioxo-1″,5″-dihydro-2″H-dispiro[cyclobutane-1,1′-cyclobutane-3′,3″-imidazo[1,5-a]pyridin]-6″-yl)amino)pyrimidin-4-yl)cyclopropanecarboxamide], in data set [1] (setting [5]), the IC50 was 44.9 nM. For the same compound, in data set [2] (setting [6]), the IC50 came out at 1.7 nM. Besides, the IC50 in data set [3] came out at 0.9 nM. The compound also gave a half-life in data set [4] of 3.35 h. For the same compound, in the data set with P-gp (human MDR1, ABCB1), the Papp A→B at 5 uM worked out at 27.4 ×10⁻⁶ cm/s, the apparent permeability from basolateral to apical (Papp B→A) at 5 uM is 56.3 ×10⁻⁶ cm/s and the efflux ratio at 5 uM stood at 2.1.

`Cc1cc(Nc2cc(N)ncn2)c(=O)n2c1C(=O)NC21CC2(CC(F)(F)C2)C1` [4ET-01-017, 6″-((6-aminopyrimidin-4-yl)amino)-3,3-difluoro-8″-methyl-2″H-dispiro[cyclobutane-1,1′-cyclobutane-3′,3″-imidazo[1,5-a]pyridine]-1″,5″-dione]: the IC50 in data set [1] (setting [5]) came out at 69.2 nM. Also, the IC50 in data set [2] (setting [6]) came out at 7.9 nM. In addition, the IC50 in data set [3] was found to be 41.6 nM. The half-life in data set [4] worked out at 4.35 h. In addition, in the data set on P-gp (human MDR1, ABCB1), the Papp A→B at 5 uM turned out to be 29 ×10⁻⁶ cm/s, the Papp B→A at 5 uM worked out at 47.2 ×10⁻⁶ cm/s and the efflux ratio at 5 uM was determined as 1.6.

As for `Cc1cc(Nc2cc(N)ncn2)c(=O)n2c1C(=O)NC21CCCC2(CC2)C1` (stereo not drawn) [4ET-01-042, 6″-((6-Aminopyrimidin-4-yl)amino)-8″-methyl-2″H-dispiro[cyclopropane-1,1′-cyclohexane-3′,3″-imidazo[1,5-a]pyridine]-1″,5″-dione], the IC50 was 16.5 nM in data set [1] (setting [5]), 2 nM in data set [2] (setting [6]) and 0.8 nM in data set [3]. For the same compound, the half-life in data set [4] was 1.88 h. Besides, the apparent permeability from apical to basolateral (Papp A→B) at 5 uM with P-gp (human MDR1, ABCB1) amounted to 50.4 ×10⁻⁶ cm/s. In addition, the apparent permeability from basolateral to apical (Papp B→A) at 5 uM in the data set with P-gp (human MDR1, ABCB1) stood at 68.9 ×10⁻⁶ cm/s. Also, in the data set on P-gp (human MDR1, ABCB1), the efflux ratio at 5 uM was 1.4.

`Cc1cc(Nc2cc(NC(=O)[C@H]3[C@@H]4CN(C)C[C@@H]43)ncn2)c(=O)n2c1C(=O)NC21CCC2(CC2)CC1` [4ET-03-061, (1R,5S,6r)-3-methyl-N-(6-((8″-methyl-1″,5″-dioxo-1″,5″-dihydro-2″H-dispiro[cyclopropane-1,1′-cyclohexane-4′,3″-imidazo[1,5-a]pyridin]-638-yl)amino)pyrimidin-4-yl)-3-azabicyclo[3.1.0]hexane-6-carboxamide]: the IC50 worked out at 36.2 nM in data set [1] (setting [5]), 1.7 nM in data set [2] (setting [6]) and 5.2 nM in data set [3].

In the case of `Cc1cc(Nc2cc(N)ncn2)c(=O)n2c1C(=O)NC21CC2(CCCCC2)C1` [4ET-01-020, 6″-((6-aminopyrimidin-4-yl)amino)-8″-methyl-2″H-dispiro[cyclohexane-1,1′-cyclobutane-3′,3″-imidazo[1,5-a]pyridine]-1″,5″-dione], the IC50 in data set [1] (setting [5]) worked out at 36 nM. For the same compound, in data set [2] (setting [6]), the IC50 was 3 nM. In data set [3], the IC50 is 4.3 nM. In data set [4], this compound registered a half-life of 0.793 h. Further, in the data set on P-gp (human MDR1, ABCB1), the apparent permeability from apical to basolateral (Papp A→B) at 5 uM amounted to 46.7 ×10⁻⁶ cm/s, the basolateral-to-apical permeability (Papp B→A) at 5 uM turned out to be 70.7 ×10⁻⁶ cm/s and the efflux ratio at 5 uM is 1.5.

For the compound `Cc1cc(Nc2cc(NC(=O)C3CC4(C3)CN(C)C4)ncn2)c(=O)n2c1C(=O)NC21CCC2(CC2)CC1` [4ET-03-060, 2-methyl-N-(6-((8″-methyl-1″,5″-dioxo-1″,5″-dihydro-2″H-dispiro[cyclopropane-1,1′-cyclohexane-4′,3″-imidazo[1,5-a]pyridin]-638-yl)amino)pyrimidin-4-yl)-2-azaspiro[3.3]heptane-6-carboxamide], the IC50 in data set [1] (setting [5]) amounted to 31 nM; in data set [2] (setting [6]) it was 1.7 nM; in data set [3] it was 6.5 nM.

For `Cc1cc(Nc2cc(NC(=O)C3CC3)ncn2)c(=O)n2c1C(=O)NC21CCC2(CC1)CN2C(=O)OCc1ccccc1` (stereo not drawn) [4ET-03-046], the IC50 in data set [1] (setting [5]) worked out at 49.8 nM; in data set [2] (setting [6]), 1.7 nM; in data set [3] it was 6.4 nM.

For the compound `CCOC(=O)C1CC12CCC1(CC2)NC(=O)c2c(C)cc(Nc3cc(NC(=O)C4CC4)ncn3)c(=O)n21` (stereo not drawn) [4ET-03-045, ethyl 6″-((6-(cyclopropanecarboxamido)pyrimidin-4-yl)amino)-8″-methyl-1″,5″-dioxo-1″,5″-dihydro-2″H-dispiro [cyclopropane-1,1′-cyclohexane-4′,3″-imidazo[1,5-a]pyridine]-2-carboxylate], the IC50 in data set [1] (setting [5]) was 131 nM; in data set [2] (setting [6]) it was 12.1 nM; in data set [3] it was 17.7 nM.

Take `Cc1cc(Nc2cc(NC(=O)[C@H]3[C@@H]4CNC[C@@H]43)ncn2)c(=O)n2c1C(=O)NC21CCC2(CC2)CC1` [4ET-03-056, (1R,5S,6r)-N-(6-((8″-methyl-1″,5″-dioxo-1″,5″-dihydro-2″H-dispiro[cyclopropane-1,1′-cyclohexane-4′,3″-imidazo[1,5-a]pyridin]-638-yl)amino)pyrimidin-4-yl)-3-azabicyclo[3.1.0]hexane-6-carboxamide]: the IC50 in data set [1] (setting [5]) amounted to 51.8 nM. Also, in data set [2] (setting [6]), the IC50 was determined as 3.5 nM. The IC50 in data set [3] was found to be 11.1 nM. The compound further gave a half-life in data set [4] of 2.95 h. Besides, in the data set with P-gp (human MDR1, ABCB1), the Papp A→B at 5 uM turned out to be 0.5 ×10⁻⁶ cm/s, the basolateral-to-apical permeability (Papp B→A) at 5 uM is 15.9 ×10⁻⁶ cm/s and the efflux ratio at 5 uM turned out to be 31.8.

Consider `Cc1cc(Nc2cc(NC(=O)C3(CN(C)C)CC3)ncn2)c(=O)n2c1C(=O)NC21CCC2(CC2)CC1` [4ET-03-081, 1-((dimethylamino)methyl)-N-(6-((8″-methyl-1″,5″-dioxo-1″,5″-dihydro-2″H-dispiro[cyclopropane-1,1′-cyclohexane-4′,3″-imidazo[1,5-a]pyridin]-6″-yl)amino)pyrimidin-4-yl)cyclopropane-1-carboxamide], for which the IC50 in data set [1] (setting [5]) was found to be 30.3 nM. Besides, the IC50 in data set [2] (setting [6]) is 10.1 nM. For the same compound, in data set [4], the half-life amounted to 1.24 h. In the data set with P-gp (human MDR1, ABCB1), the apparent permeability from apical to basolateral (Papp A→B) at 5 uM is 17.1 ×10⁻⁶ cm/s, the basolateral-to-apical permeability (Papp B→A) at 5 uM was 23.4 ×10⁻⁶ cm/s and the efflux ratio at 5 uM was found to be 1.4.

In the case of `Cc1cc(Nc2cc(NC(=O)C3(CN)CC3)ncn2)c(=O)n2c1C(=O)NC21CCC2(CC2)CC1` [4ET-03-055, 1-(aminomethyl)-N-(6-((8″-methyl-1″,5″-dioxo-1″,5″-dihydro-2″H-dispiro[cyclopropane-1,1′-cyclohexane-4′,3″-imidazo[1,5-a]pyridin]-6″-yl)amino)pyrimidin-4-yl)cyclopropane-1-carboxamide], in data set [1] (setting [5]), the IC50 came to 127 nM. Further, the IC50 in data set [2] (setting [6]) was determined as 29.5 nM. The IC50 in data set [3] was determined as 44 nM. For the same compound, in the data set with P-gp (human MDR1, ABCB1), the apparent permeability from apical to basolateral (Papp A→B) at 5 uM came out at 3 ×10⁻⁶ cm/s, the basolateral-to-apical permeability (Papp B→A) at 5 uM came out at 57.6 ×10⁻⁶ cm/s and the efflux ratio at 5 uM was 19.

`Cc1cc(Nc2cc(NC(=O)C3CC3)ncn2)c(=O)n2c1C(=O)NC21CCC2(CC1)CNC2` [4ET-03-049, N-(6-((8″-methyl-1″,5″-dioxo-1″,5″-dihydro-2″H-dispiro[azetidine-3,1′-cyclohexane-4′,3″-imidazo1[1,5-a]pyridin]-6″-yl)amino)pyrimidin-4-yl)cyclopropanecarboxamide]: the IC50 in data set [1] (setting [5]) was 80 nM. Further, the IC50 in data set [2] (setting [6]) worked out at 2.8 nM. The IC50 in data set [3] is 110 nM. Moreover, the half-life in data set [4] turned out to be 2.43 h. For the same compound, in the data set on P-gp (human MDR1, ABCB1), the apparent permeability from apical to basolateral (Papp A→B) at 5 uM worked out at 0.3 ×10⁻⁶ cm/s, the basolateral-to-apical permeability (Papp B→A) at 5 uM was 0.7 ×10⁻⁶ cm/s and the efflux ratio at 5 uM turned out to be 2.1.

Consider `Cc1cc(Nc2cc(N)ncn2)c(=O)n2c1C(=O)NC21CC2(CCCC2)C1` [4ET-01-018, 6″-((6-aminopyrimidin-4-yl)amino)-8″-methyl-2″H-dispiro[cyclopentane-1,1′-cyclobutane-3′,3″-imidazo[1,5-a]pyridine]-1″,5″-dione], for which the results for the IC50 in data set [1] (setting [5]), in data set [2] (setting [6]) and in data set [3] were 41.8 nM, 4.1 nM and 4.1 nM, respectively. In data set [4], the half-life was determined as 0.853 h. The compound also registered a Papp A→B at 5 uM with P-gp (human MDR1, ABCB1) of 50.8 ×10⁻⁶ cm/s. In the data set with P-gp (human MDR1, ABCB1), the Papp B→A at 5 uM came out at 66.7 ×10⁻⁶ cm/s. Moreover, in the data set with P-gp (human MDR1, ABCB1), the efflux ratio at 5 uM came to 1.3.

Take `Cc1cc(Nc2cc(NC(=O)C3(CNS(C)(=O)=O)CC3)ncn2)c(=O)n2c1C(=O)NC21CCC2(CC2)CC1` [4ET-03-076, N-(6-((8″-methyl-1″,5″-dioxo-1″,5″-dihydro-2″H-dispiro[cyclopropane-1,1′-cyclohexane-4′,3″-imidazo[1,5-a]pyridin]-638-yl)amino)pyrimidin-4-yl)-1-(methylsulfonamidomethyl)cyclopropane-1-carboxamide]: the figures for the IC50 in data set [1] (setting [5]) and in data set [2] (setting [6]) were 37.5 nM and 12.2 nM, respectively.

For `Cc1cc(Nc2cc(NC(=O)C3CC3)ncn2)c(=O)n2c1C(=O)NC21CCC2(CC1)CN(C(=O)OC(C)(C)C)C2` [4ET-03-048, tert-butyl 6″-((6-(cyclopropanecarboxamido)pyrimidin-4-yl)amino)-8″-methyl-1″,5″-dioxo-1″,5″-dihydro-2″H-dispiro[azetidine-3,1′-cyclohexane-4′,3″-imidazo[1,5-a]pyridine]-1-carboxylate], the IC50 in data set [1] (setting [5]) amounted to 145 nM; in data set [2] (setting [6]), 5.2 nM; in data set [3] it was 6.1 nM.

For `Cc1cc(Nc2cc(N)ncn2)c(=O)n2c1C(=O)NC21CCC2(CC1)CN2` (stereo not drawn) [4ET-01-012, 6″-((6-aminopyrimidin-4-yl)amino)-8″-methyl-2″H-dispiro[aziridine-2,1′-cyclohexane-4′,3″-imidazo[1,5-a]pyridine]-1″,5″-dione], the IC50 amounted to 27.9 nM in data set [1], 3 nM in data set [2] and 57.1 nM in data set [3].

With `Cc1cc(Nc2cc(N)ncn2)c(=O)n2c1C(=O)NC21CC2(CCC2)C1` [4ET-01-009, 6″-((6-aminopyrimidin-4-yl)amino)-8″-methyl-2″H-dispiro[cyclobutane-1,1′-cyclobutane-3′,3″-imidazo[1,5-a]pyridine]-1″,5″-dione], the values for the IC50 in data set [1] (setting [5]), in data set [2] (setting [6]) and in data set [3] were 13.1 nM, 0.8 nM and 3.6 nM, respectively.
